Measurements published in US9034819B2, “Method of lowering cholesterol and triglycerides by administering exendins” (Amylin Pharmaceuticals, LLC, priority 2008, dated 2015).

How the values were obtained:
Assay type in all cases: in vivo, human
[1] = tested on: total cholesterol, LDL-cholesterol, HDL-cholesterol; experiment: Total, LDL- and HDL-cholesterol, 30 week study in patients with Type 2 diabetes; settings: SC
Experimental: (§1) The pharmacokinetics of a long-acting release formulation of exenatide was evaluated in a study in patients with Type 2 diabetes. The study population consisted of individuals with type 2 diabetes treated with a stable regimen of oral diabetes medications or managed with diet modification and exercise. […] The 30 week study compared a 10 μg formulation of exenatide administered twice daily (BTD) by subcutaneous (SC) injection and a 2 mg formulation of exenatide administered once weekly by subcutaneous (SC) injection. The study was also conducted, inter alia, to examine the effects of such administration on the individual's total cholesterol, LDL-cholesterol, HDL-cholesterol, triglyceride levels, hemoglobin A1C, fasting postprandial blood glucose, and weight.
During the 3-day lead-in period, patients self-administered exenatide 5 μg SC, BID, within 15 minutes prior to meals in the morning and evening. The exenatide 5 μg SC, BID used in the 3-day lead-in period was a clear, colorless, sterile preserved solution for SC injection containing exenatide (exendin-4) in sodium acetate buffer, pH 4.5, 4.3% mannitol as an iso-osmolality modifier and 0.22% metacresol as a preservative. The strength of exenatide injection was 0.25 mg/mL of exendin-4.
During the 30-week treatment period, patients received once weekly subcutaneous injections of a 2.0 mg dose pharmaceutical formulation containing 5% exenatide or patient received twice daily subcutaneous injections of exenatide at 10 μg per dose.
(§2) Exenatide once weekly is a sustained-release formulation of exenatide (exendin-4) designed to provide exenatide release over a period ranging from 7 to 91 days. […] The vial containing the white to off-white dry powder (2.8 mg of exenatide once weekly) was stored frozen in a freezer with a recorded temperature at ≦−20±5° C. at the study site.
(§3) Patients were monitored about every four weeks for body weight, vital signs (including blood pressure, heart rate, respiratory rate, and temperature), urinalysis, and adverse events. […]

[2] = Body weight, 30 week study in patients with Type 2 diabetes; settings: weight loss from baseline to week 30, SC, once weekly 2 mg or twice daily 10 μg
Experimental: as §1, with “weight. […]” for “weight.”
as §2, §3

fasting triglycerides = experiment: Fasting triglycerides, 30 week study in patients with Type 2 diabetes; settings: decrease from baseline to week 30; SC; once weekly 2 mg or twice daily 10 μg
Experimental: as §1, with “weight. […]” for “weight.”
as §2, §3

blood glucose = experiment: Fasting postprandial blood glucose, 30 week study in patients with Type 2 diabetes; settings: decrease from baseline to week 30; SC; once weekly 2 mg or twice daily 10 μg
Experimental: as §1
During the 3-day lead-in period, patients self-administered exenatide 5 μg SC, BID, within 15 minutes prior to meals in the morning and evening. […]
as §2

hemoglobin A1C = experiment: Hemoglobin A1C by HPLC, 30 week study in patients with Type 2 diabetes; settings: decrease from baseline to week 30; SC; once weekly 2 mg or twice daily 10 μg
Experimental: as §1, with “weight. […]” for “weight.”
as §2
Plasma exenatide was quantified by a validated Enzyme-Linked Immunosorbent Assay (ELISA) at Millipore (Billerica, Mass.). […] Glycosylated hemoglobin was quantitated by Quintiles Laboratories (Smyrna, Ga.) using high-performance liquid chromatography. […]

[3] = decrease from baseline to week 30, once weekly 2 mg or twice daily 10 μg

Substance: exenatide BID: 10 μg formulation of exenatide (exendin-4) administered twice daily by subcutaneous injection
- HDL-cholesterol decreased by an average of [1, 3]: 1.3 mg/dL
- total cholesterol decreased by an average of [1, 3]: 3.8 mg/dL
- LDL-cholesterol increased by an average of ([1]; increase from baseline to week 30, twice daily 10 μg): 1.2 mg/dL
- body weight decreased by an average of (weight loss) [2]: about 3.6 kg
- body weight decreased by an average of (weight loss) ([2]; listed as exenatide twice daily): 3.6 kg
- fasting triglycerides decreased by an average of (fasting triglycerides): 22 mg/dL
- fasting postprandial blood glucose decreased by an average of (blood glucose): 25 mg/dL
- HbA1C decreased by an average of (hemoglobin A1C): 1.5%
